The target of experiment [1] is T1, MC1-R (B-16 mouse melanoma cells) (Mus musculus, UniProt Q01727).
T1 construct: B-16 mouse melanoma cells (containing MC1-R); endogenous in cells; host or cells: B-16 mouse melanoma cells
The experiment in a line: Competitive inhibition binding assay, 125I-NDP-α-MSH, MC1-R. The conditions noted are these: for Inhibition at 1 μM MC1-R: 1 μM compound, inhibition of 125I-NDP-α-MSH binding, mean of triplicates, results less than 0% reported as 0%. An outline of the steps:
(§1)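 Membranes from hMC3-R, hMC4-R or hMC5-R cells, or B-16 mouse melanoma cells (MC1-R), were incubated 90 min at room temperature with 0.4 nM 125I-NDP-α-MSH in HEPES pH 7.2 with Mg2+/Ca2+/K+, and test compound generally at 1 μM. Filter-bound radioactivity was gamma counted. Specific binding was defined with 1 μM α-MSH; triplicate means.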

For a further experiment, the target named is MC5-R (Homo sapiens, UniProt P33032). The experiment in a line: Competitive inhibition binding assay, 125I-NDP-α-MSH, MC5-R. Further details: expressed in transfected cells. The conditions noted are these: for Inhibition at 1 μM MC5-R: 1 μM compound, inhibition of 125I-NDP-α-MSH binding, mean of triplicates, results less than 0% reported as 0%. In short, it runs like this:
as §1

For a further experiment, the target named is MC3-R (Homo sapiens, UniProt P41968). In words: Competitive inhibition binding assay, 125I-NDP-α-MSH, MC3-R. On the set-up: expressed in transfected cells. The settings on record: for Inhibition at 1 μM MC3-R: 1 μM compound, inhibition of 125I-NDP-α-MSH binding, mean of triplicates, results less than 0% reported as 0%. An outline of the steps:
as §1

The next experiment concerns the target MC4-R (Homo sapiens, UniProt P32245). The experiment in a line: Competitive inhibition binding assay, 125I-NDP-α-MSH, MC4-R. Further details: expressed in transfected cells. The settings on record: for Inhibition at 1 μM MC4-R: 1 μM compound, inhibition of 125I-NDP-α-MSH binding, mean of triplicates, results less than 0% reported as 0%. In short, it runs like this:
as §1

MC3-R, sequence (P41968 whole entry): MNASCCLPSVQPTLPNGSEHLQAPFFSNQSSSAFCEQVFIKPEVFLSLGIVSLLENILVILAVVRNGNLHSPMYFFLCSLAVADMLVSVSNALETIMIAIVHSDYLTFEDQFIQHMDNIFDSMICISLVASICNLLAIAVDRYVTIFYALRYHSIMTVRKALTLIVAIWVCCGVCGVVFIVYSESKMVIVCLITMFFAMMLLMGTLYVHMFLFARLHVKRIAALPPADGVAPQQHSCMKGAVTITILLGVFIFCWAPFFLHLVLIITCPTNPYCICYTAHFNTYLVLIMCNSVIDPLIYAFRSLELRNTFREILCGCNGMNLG
MC5-R, sequence (P33032 whole entry): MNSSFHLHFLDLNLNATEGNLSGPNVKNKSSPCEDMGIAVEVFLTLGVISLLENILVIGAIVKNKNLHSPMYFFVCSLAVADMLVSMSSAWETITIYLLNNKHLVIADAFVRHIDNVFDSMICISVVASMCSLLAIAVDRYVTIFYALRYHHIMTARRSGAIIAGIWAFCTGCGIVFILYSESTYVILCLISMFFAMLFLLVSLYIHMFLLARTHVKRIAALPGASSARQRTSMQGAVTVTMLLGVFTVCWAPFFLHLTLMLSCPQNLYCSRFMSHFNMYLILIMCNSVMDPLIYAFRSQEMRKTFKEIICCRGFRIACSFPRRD
MC4-R, sequence (P32245 whole entry): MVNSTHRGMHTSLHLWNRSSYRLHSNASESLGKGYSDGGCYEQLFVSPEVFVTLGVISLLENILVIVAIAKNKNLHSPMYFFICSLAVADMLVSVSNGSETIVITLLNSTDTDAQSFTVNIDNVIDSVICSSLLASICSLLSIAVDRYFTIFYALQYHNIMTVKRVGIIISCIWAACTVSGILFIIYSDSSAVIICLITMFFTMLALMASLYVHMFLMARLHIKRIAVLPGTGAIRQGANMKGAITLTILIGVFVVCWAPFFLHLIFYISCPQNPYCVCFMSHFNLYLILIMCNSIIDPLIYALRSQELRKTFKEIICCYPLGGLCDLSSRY
T1 sequence (Q01727 whole entry): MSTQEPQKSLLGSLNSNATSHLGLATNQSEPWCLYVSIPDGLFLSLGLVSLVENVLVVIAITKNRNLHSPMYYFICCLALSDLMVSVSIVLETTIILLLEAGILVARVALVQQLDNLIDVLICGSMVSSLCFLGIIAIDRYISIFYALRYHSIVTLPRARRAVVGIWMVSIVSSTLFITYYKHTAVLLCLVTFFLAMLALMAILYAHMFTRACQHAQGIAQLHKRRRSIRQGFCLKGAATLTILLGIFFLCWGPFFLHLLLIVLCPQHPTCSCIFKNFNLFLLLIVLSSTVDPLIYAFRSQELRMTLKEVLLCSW

For the compound `NCCCNC(=O)[C@@H]1C[C@@H](OCc2ccccc2)CN1C(=O)[C@@H](Cc1ccccc1)NC(=O)[C@H](Cc1cnc[nH]1)NC(=O)c1ccccc1` [Example 140], the “Inhibition at 1 μM MC1-R” value in experiment [1] is given as 78%. For the same compound, the “Inhibition at 1 μM MC5-R” value on MC5-R is listed as 10%. The “Inhibition at 1 μM MC3-R” value on MC3-R came out at 3%. For the same compound, the “Inhibition at 1 μM MC4-R” value on MC4-R turned out to be 1%.
The like results for `NCCCNC(=O)[C@@H]1C[C@@H](OCc2ccccc2)CN1C(=O)[C@@H](Cc1ccccc1)NC(=O)[C@H](Cc1cnc[nH]1)NC(=O)Cc1ccc2ccccc2c1` [Example 141] were, in that order, 84%, 19%, 4% and 0%.
In the case of `NCCCNC(=O)[C@@H]1C[C@@H](OCc2ccccc2)CN1C(=O)[C@@H](Cc1ccccc1)NC(=O)[C@H](Cc1cnc[nH]1)NC(=O)CC1CCCCC1` [Example 142], the “Inhibition at 1 μM MC1-R” value in experiment [1] turned out to be 85%. The “Inhibition at 1 μM MC5-R” value at MC5-R is 12%. Besides, the “Inhibition at 1 μM MC3-R” value at MC3-R was found to be 3%. Further, the “Inhibition at 1 μM MC4-R” value on MC4-R was 0%.
In the same order, the values of `CCCC(CCC)C(=O)N[C@@H](Cc1cnc[nH]1)C(=O)N[C@H](Cc1ccccc1)C(=O)N1C[C@H](OCc2ccccc2)C[C@H]1C(=O)NCCCN` [Example 143] are 73%, 7%, 0% and 0%.
The like results for `CCCCCCC(=O)N[C@@H](Cc1cnc[nH]1)C(=O)N[C@H](Cc1ccccc1)C(=O)N1C[C@H](OCc2ccccc2)C[C@H]1C(=O)NCCCNC(=N)N` [Example 154] were, in that order, 92%, 1%, 7% and 1%.
In the same order, the values of `CCCCCCC(=O)N[C@@H](Cc1cnc[nH]1)C(=O)N[C@H](Cc1ccccc1)C(=O)N1C[C@H](OCc2ccccc2)C[C@H]1C(=O)NCCCN` [Example 155] are 71%, 7%, 5% and 0%.
For `NCCCNC(=O)[C@@H]1C[C@@H](OCc2ccccc2)CN1C(=O)[C@@H](Cc1ccccc1)NC(=O)[C@H](N)Cc1ccc2ccccc2c1` [Example 158], in experiment [1], the “Inhibition at 1 μM MC1-R” value is 0%. Also, at MC5-R, the “Inhibition at 1 μM MC5-R” value is recorded as 0%. In addition, the “Inhibition at 1 μM MC3-R” value on MC3-R came to 5%. Moreover, on MC4-R, the “Inhibition at 1 μM MC4-R” value came out at 0%.
As to `NCCCNC(=O)C1CC(OCc2ccccc2)CN1C(=O)C(Cc1ccccc1)NC(=O)C1NCCc2ccccc21` (stereo not drawn) [Example 159], the “Inhibition at 1 μM MC1-R” value in experiment [1] stood at 0%. The “Inhibition at 1 μM MC5-R” value on MC5-R came out at 0%. Further, at MC3-R, the “Inhibition at 1 μM MC3-R” value stood at 14%. On MC4-R, the “Inhibition at 1 μM MC4-R” value worked out at 1%.
Consider `NCCCNC(=O)C1CC(OCc2ccccc2)CN1C(=O)C(Cc1ccccc1)NC(=O)C1NCCc2ccccc21` (stereo not drawn) [Example 160], for which the “Inhibition at 1 μM MC1-R” value in experiment [1] turned out to be 1%. Besides, the “Inhibition at 1 μM MC5-R” value on MC5-R is listed as 0%. Besides, the “Inhibition at 1 μM MC3-R” value at MC3-R is 36%. The “Inhibition at 1 μM MC4-R” value at MC4-R was 5%.
In the same order, the values of `NCCCNC(=O)[C@@H]1C[C@@H](OCc2ccccc2)CN1C(=O)[C@@H](Cc1ccccc1)NC(=O)C1(N)CCCC1` [Example 161] are 3%, 0%, 23% and 10%.
The like results for `NCCCNC(=O)[C@@H]1C[C@@H](OCc2ccccc2)CN1C(=O)[C@@H](Cc1ccccc1)NC(=O)C1(N)CCCCC1` [Example 162] were, in that order, 0%, 0%, 41% and 8%.
The like results for `NCCCNC(=O)[C@@H]1C[C@@H](OCc2ccccc2)CN1C(=O)[C@@H](Cc1ccccc1)NC(=O)C1(N)Cc2ccccc2C1` [Example 163] were, in that order, 0%, 0%, 16% and 15%.
For `NCCCNC(=O)[C@@H]1C[C@@H](OCc2ccccc2)CN1C(=O)[C@@H](Cc1ccccc1)NC(=O)[C@@H](N)Cc1ccc2ccccc2c1` [Example 164], the “Inhibition at 1 μM MC1-R” value in experiment [1] was 0%. Further, the “Inhibition at 1 μM MC5-R” value on MC5-R is reported as 1%. Besides, the “Inhibition at 1 μM MC3-R” value at MC3-R is 0%. Also, on MC4-R, the “Inhibition at 1 μM MC4-R” value was found to be 13%.
Consider `NCCCNC(=O)[C@@H]1C[C@@H](OCc2ccccc2)CN1C(=O)[C@@H](Cc1ccccc1)NC(=O)[C@@H](N)Cc1cccc2ccccc12` [Example 165], for which the “Inhibition at 1 μM MC1-R” value in experiment [1] turned out to be 0%. Moreover, the “Inhibition at 1 μM MC5-R” value on MC5-R amounted to 0%. Further, the “Inhibition at 1 μM MC3-R” value at MC3-R is 2%. In addition, the “Inhibition at 1 μM MC4-R” value on MC4-R is on record as 16%.
Consider `NCCCNC(=O)[C@@H]1C[C@@H](OCc2ccccc2)CN1C(=O)[C@@H](Cc1ccccc1)NC(=O)[C@H](N)Cc1cccc2ccccc12` [Example 166], for which the “Inhibition at 1 μM MC1-R” value in experiment [1] is given as 0%. Further, the “Inhibition at 1 μM MC5-R” value on MC5-R was 0%. The “Inhibition at 1 μM MC3-R” value on MC3-R is on record as 13%. In addition, at MC4-R, the “Inhibition at 1 μM MC4-R” value is 8%.
Turning to `[2H]N1CCCC1C(=O)NC(Cc1ccccc1)C(=O)N1CC(OCc2ccccc2)CC1C(=O)NCCCN` (stereo not drawn) [Example 167], the “Inhibition at 1 μM MC1-R” value in experiment [1] is 22%. Further, the “Inhibition at 1 μM MC5-R” value at MC5-R stood at 5%. Besides, the “Inhibition at 1 μM MC3-R” value on MC3-R was 0%. Moreover, at MC4-R, the “Inhibition at 1 μM MC4-R” value was determined as 8%.
For `NCCCNC(=O)[C@@H]1C[C@@H](OCc2ccccc2)CN1C(=O)[C@@H](Cc1ccccc1)NC(=O)C1CCC(CN)CC1` (stereo partly drawn) [Example 168], in experiment [1], the “Inhibition at 1 μM MC1-R” value is 18%. Besides, the “Inhibition at 1 μM MC5-R” value at MC5-R came to 0%. For the same compound, the “Inhibition at 1 μM MC3-R” value on MC3-R is given as 0%. Further, on MC4-R, the “Inhibition at 1 μM MC4-R” value is given as 10%.
As for `NCCCNC(=O)[C@@H]1C[C@@H](OCc2ccccc2)CN1C(=O)[C@@H](Cc1ccccc1)NC(=O)c1ccc(CN)cc1` [Example 169], in experiment [1], the “Inhibition at 1 μM MC1-R” value is given as 12%. Further, the “Inhibition at 1 μM MC5-R” value at MC5-R turned out to be 0%. On MC3-R, the “Inhibition at 1 μM MC3-R” value is 0%. Moreover, the “Inhibition at 1 μM MC4-R” value on MC4-R came out at 6%.
Regarding `NCCCNC(=O)[C@@H]1C[C@@H](OCc2ccccc2)CN1C(=O)[C@@H](Cc1ccccc1)NC(=O)[C@@H](N)Cc1ccc(-c2ccccc2)cc1` [Example 171], the “Inhibition at 1 μM MC1-R” value in experiment [1] came to 11%. Besides, at MC5-R, the “Inhibition at 1 μM MC5-R” value is given as 25%. Further, the “Inhibition at 1 μM MC3-R” value on MC3-R is 0%. Besides, the “Inhibition at 1 μM MC4-R” value on MC4-R is 9%.
In the same order, the values of `NCCCNC(=O)[C@@H]1C[C@@H](OCc2ccccc2)CN1C(=O)[C@@H](Cc1ccccc1)NC(=O)[C@@H]1Cc2ccccc2N1` [Example 172] are 14%, 0%, 0% and 4%.
The like results for `NCCCNC(=O)[C@@H]1C[C@@H](OCc2ccccc2)CN1C(=O)[C@@H](Cc1ccccc1)NC(=O)[C@H](N)C(c1ccccc1)c1ccccc1` [Example 173] were, in that order, 7%, 0%, 13% and 7%.
In the same order, the values of `NCCCNC(=O)[C@@H]1C[C@@H](OCc2ccccc2)CN1C(=O)[C@@H](Cc1ccccc1)NC(=O)[C@@H](N)C1Cc2ccccc2C1` [Example 174] are 10%, 2%, 21% and 15%.
For `NCCCNC(=O)[C@@H]1C[C@@H](OCc2ccccc2)CN1C(=O)[C@@H](Cc1ccccc1)NC(=O)[C@H](N)C1Cc2ccccc2C1` [Example 175], in experiment [1], the “Inhibition at 1 μM MC1-R” value was 3%. Also, the “Inhibition at 1 μM MC5-R” value at MC5-R worked out at 0%. Further, the “Inhibition at 1 μM MC3-R” value on MC3-R came out at 0%. For the same compound, on MC4-R, the “Inhibition at 1 μM MC4-R” value is recorded as 19%.
`CC(O)C(N)C(=O)NC(Cc1ccccc1)C(=O)N1CC(OCc2ccccc2)CC1C(=O)NCCCN` (stereo not drawn) [Example 176]: the “Inhibition at 1 μM MC1-R” value in experiment [1] amounted to 18%. In addition, the “Inhibition at 1 μM MC5-R” value at MC5-R was determined as 8%. Moreover, the “Inhibition at 1 μM MC3-R” value at MC3-R is 0%. The “Inhibition at 1 μM MC4-R” value at MC4-R is 8%.
As for `NCCCNC(=O)C1CC(OCc2ccccc2)CN1C(=O)C(Cc1ccccc1)NC(=O)C1CCC(=O)N1C(=O)OCc1ccccc1` (stereo not drawn) [Example 177], in experiment [1], the “Inhibition at 1 μM MC1-R” value is on record as 2%. The “Inhibition at 1 μM MC5-R” value at MC5-R turned out to be 0%. In addition, on MC3-R, the “Inhibition at 1 μM MC3-R” value came to 0%. Further, the “Inhibition at 1 μM MC4-R” value on MC4-R worked out at 7%.
On to `CCCCCCC(=O)NC(COCc1ccccc1)C(=O)NC(Cc1ccc2ccccc2c1)C(=O)N1CC2CC(Oc3ccc4ccccc4c3)CN2C(=O)C1CCCCN` (stereo not drawn) [Example 178], for which, in experiment [1], the “Inhibition at 1 μM MC1-R” value was determined as 33%. Also, the “Inhibition at 1 μM MC5-R” value on MC5-R came to 0%. Further, the “Inhibition at 1 μM MC3-R” value at MC3-R is 0%. Also, the “Inhibition at 1 μM MC4-R” value at MC4-R is 0%.
In the case of `[2H]N[C@@H](Cc1cnc[nH]1)C(=O)N[C@@H](Cc1ccccc1)C(=O)N1CC2C[C@H](Oc3ccc4ccccc4c3)CN2C(=O)[C@@H]1CCCCN` (stereo partly drawn) [Example 179], the inhibition at 1 µM (in experiment [1]; at MC5-R; on MC3-R; at MC4-R) was 0% throughout.

The values above are taken from patent US7807678B2, “Peptidomimetics of biologically active metallopeptides” (Palatin Technologies, Inc., priority 2001, dated 2010).
